Data from ChEMBL document CHEMBL5291721, “A preclinical secondary pharmacology resource illuminates target-adverse drug reaction associations of marketed drugs” (Nat Commun, 2023).

What was measured:
[1] = target: T1, Muscarinic acetylcholine receptor M2 (Homo sapiens, UniProt P08172); format: functional, cell-based
T1 sequence (P08172 whole entry): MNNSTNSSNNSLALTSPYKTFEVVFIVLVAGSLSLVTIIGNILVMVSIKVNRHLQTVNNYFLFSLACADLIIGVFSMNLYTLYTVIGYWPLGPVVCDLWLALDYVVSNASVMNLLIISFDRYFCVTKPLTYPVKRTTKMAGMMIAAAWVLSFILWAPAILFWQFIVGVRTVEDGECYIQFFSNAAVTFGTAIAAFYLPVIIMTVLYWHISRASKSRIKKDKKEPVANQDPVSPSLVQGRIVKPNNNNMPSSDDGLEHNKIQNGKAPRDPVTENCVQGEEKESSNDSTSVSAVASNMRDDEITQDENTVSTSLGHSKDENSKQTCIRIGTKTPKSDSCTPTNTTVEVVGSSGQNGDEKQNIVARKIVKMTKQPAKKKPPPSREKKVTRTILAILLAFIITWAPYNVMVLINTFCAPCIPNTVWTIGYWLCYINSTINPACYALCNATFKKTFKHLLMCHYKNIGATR

[2] = target: T2, 5-hydroxytryptamine receptor 2C (Homo sapiens, UniProt P28335)
T2 sequence (P28335 whole entry): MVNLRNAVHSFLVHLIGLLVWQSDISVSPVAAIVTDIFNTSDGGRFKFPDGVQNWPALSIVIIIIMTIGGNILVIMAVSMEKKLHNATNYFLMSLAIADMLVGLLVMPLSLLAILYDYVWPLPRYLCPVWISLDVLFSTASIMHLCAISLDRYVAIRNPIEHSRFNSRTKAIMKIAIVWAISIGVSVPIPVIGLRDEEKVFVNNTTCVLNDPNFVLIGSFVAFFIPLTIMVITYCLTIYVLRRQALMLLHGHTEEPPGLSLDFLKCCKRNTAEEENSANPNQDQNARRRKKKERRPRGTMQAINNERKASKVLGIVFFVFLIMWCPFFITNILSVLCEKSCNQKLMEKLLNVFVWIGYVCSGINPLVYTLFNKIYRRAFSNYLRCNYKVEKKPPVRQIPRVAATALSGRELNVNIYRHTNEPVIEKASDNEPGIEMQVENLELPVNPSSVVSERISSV

[3] = target: Gamma-aminobutyric acid receptor subunit alpha-1/alpha-2/beta-2/gamma-2 (Homo sapiens, UniProt P14867+P18507+P47869+P47870); format: protein-complex assay
Chain of Gamma-aminobutyric acid receptor subunit alpha-1/alpha-2/beta-2/gamma-2 (P14867 whole entry): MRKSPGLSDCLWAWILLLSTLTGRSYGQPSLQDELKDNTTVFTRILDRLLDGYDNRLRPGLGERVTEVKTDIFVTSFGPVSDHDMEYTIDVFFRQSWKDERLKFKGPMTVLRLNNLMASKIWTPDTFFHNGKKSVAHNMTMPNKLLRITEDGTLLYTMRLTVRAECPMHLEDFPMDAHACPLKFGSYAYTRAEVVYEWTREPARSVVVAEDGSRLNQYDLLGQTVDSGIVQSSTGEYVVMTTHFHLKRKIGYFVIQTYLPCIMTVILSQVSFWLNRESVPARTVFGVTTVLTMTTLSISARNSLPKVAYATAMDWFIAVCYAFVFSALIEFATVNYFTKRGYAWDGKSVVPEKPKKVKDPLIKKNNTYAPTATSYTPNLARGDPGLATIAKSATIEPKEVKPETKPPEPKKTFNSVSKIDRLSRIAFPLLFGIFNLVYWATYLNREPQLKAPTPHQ
Chain of Gamma-aminobutyric acid receptor subunit alpha-1/alpha-2/beta-2/gamma-2 (P47870 whole entry): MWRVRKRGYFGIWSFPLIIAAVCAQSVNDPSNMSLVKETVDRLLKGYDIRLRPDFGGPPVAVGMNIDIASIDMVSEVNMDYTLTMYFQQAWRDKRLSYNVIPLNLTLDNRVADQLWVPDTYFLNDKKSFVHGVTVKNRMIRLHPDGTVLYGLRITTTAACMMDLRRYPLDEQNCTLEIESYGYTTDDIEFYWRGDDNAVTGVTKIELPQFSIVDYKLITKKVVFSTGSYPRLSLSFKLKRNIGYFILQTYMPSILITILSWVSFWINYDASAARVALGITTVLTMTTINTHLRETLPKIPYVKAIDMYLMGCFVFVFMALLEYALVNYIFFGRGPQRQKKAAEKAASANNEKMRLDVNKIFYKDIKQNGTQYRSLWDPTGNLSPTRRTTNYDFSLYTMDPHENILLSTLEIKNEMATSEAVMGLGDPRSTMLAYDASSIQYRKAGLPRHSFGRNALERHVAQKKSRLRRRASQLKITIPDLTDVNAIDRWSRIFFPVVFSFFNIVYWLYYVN
Chain of Gamma-aminobutyric acid receptor subunit alpha-1/alpha-2/beta-2/gamma-2 (P18507 whole entry): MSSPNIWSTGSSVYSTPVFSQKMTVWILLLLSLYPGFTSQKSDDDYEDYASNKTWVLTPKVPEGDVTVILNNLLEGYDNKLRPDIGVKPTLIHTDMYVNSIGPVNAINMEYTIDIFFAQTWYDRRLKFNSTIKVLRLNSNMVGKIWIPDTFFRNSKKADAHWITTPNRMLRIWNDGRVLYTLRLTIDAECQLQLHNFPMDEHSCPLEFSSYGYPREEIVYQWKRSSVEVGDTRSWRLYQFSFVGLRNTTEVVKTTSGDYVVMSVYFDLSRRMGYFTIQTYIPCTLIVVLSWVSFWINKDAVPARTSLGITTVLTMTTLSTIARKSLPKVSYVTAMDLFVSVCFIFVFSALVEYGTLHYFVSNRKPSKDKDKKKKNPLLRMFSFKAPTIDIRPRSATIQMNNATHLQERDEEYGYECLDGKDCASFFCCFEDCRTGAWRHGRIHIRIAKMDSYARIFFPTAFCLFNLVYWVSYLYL
Chain of Gamma-aminobutyric acid receptor subunit alpha-1/alpha-2/beta-2/gamma-2 (P47869 whole entry): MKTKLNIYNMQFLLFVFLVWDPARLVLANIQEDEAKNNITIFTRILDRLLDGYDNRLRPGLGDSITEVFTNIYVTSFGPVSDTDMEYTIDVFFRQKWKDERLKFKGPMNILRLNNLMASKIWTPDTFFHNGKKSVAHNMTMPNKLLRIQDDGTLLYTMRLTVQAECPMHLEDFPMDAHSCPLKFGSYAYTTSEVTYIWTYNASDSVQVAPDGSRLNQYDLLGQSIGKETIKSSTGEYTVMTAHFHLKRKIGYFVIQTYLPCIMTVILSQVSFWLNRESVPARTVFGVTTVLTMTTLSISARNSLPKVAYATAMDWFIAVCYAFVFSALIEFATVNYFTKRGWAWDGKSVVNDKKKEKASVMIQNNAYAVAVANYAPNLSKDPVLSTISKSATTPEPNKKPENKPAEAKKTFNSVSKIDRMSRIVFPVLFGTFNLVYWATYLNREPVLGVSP

[4] = target: T3, Amine oxidase [flavin-containing] A (Homo sapiens, UniProt P21397); format: functional
T3 sequence (P21397 whole entry): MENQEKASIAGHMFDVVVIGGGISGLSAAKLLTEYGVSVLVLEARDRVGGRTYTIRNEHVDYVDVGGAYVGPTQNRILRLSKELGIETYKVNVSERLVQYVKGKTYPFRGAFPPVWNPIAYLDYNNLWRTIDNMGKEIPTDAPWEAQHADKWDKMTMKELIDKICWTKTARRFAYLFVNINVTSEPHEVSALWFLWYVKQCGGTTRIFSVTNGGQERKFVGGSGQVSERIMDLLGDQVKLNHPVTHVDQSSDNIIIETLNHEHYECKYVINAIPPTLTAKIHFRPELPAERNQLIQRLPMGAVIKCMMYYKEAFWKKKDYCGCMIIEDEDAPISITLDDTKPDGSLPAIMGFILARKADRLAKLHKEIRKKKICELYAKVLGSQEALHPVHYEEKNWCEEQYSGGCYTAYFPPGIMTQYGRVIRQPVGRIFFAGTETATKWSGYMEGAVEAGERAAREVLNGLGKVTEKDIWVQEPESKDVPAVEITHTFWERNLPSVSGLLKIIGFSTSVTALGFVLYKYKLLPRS

[5] = target: T4, Alpha-2C adrenergic receptor (Homo sapiens, UniProt P18825); format: functional
T4 sequence (P18825 whole entry): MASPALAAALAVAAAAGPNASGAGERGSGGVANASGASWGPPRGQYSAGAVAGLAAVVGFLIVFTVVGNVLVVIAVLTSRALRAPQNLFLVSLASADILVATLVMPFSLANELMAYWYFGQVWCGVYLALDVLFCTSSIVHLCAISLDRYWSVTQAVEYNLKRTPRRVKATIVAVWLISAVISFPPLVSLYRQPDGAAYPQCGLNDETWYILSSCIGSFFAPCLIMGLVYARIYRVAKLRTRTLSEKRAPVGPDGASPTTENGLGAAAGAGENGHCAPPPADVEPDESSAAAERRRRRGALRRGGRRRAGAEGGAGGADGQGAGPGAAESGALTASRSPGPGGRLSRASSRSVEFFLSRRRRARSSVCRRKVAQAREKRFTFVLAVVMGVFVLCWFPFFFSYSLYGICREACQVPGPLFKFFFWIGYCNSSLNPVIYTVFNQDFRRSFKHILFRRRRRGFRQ

Adenosine receptor A3 = target: T5, Adenosine receptor A3 (Homo sapiens, UniProt P0DMS8)
T5 sequence (P0DMS8 whole entry): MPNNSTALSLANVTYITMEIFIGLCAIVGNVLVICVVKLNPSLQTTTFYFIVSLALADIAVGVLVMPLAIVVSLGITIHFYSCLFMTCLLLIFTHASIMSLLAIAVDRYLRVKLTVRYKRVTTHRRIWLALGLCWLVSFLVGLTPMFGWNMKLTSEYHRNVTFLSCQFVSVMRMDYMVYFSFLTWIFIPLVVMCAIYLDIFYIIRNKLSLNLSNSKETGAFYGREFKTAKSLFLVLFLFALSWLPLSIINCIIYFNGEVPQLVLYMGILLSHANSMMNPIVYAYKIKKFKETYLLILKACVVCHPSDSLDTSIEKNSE

Adenosine receptor A1 = target: T6, Adenosine receptor A1 (Homo sapiens, UniProt P30542)
T6 sequence (P30542 whole entry): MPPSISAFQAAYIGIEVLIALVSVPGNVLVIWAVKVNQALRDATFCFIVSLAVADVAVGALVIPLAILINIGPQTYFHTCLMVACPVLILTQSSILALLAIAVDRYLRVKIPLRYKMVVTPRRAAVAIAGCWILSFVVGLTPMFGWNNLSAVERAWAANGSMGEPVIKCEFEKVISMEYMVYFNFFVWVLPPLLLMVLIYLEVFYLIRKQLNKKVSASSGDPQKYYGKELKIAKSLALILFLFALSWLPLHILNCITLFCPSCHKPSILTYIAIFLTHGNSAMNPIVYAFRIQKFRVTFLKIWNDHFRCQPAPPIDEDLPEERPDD

Vasopressin V2 receptor = Vasopressin V2 receptor (Homo sapiens, UniProt P30518)
Chain of Vasopressin V2 receptor (P30518 whole entry): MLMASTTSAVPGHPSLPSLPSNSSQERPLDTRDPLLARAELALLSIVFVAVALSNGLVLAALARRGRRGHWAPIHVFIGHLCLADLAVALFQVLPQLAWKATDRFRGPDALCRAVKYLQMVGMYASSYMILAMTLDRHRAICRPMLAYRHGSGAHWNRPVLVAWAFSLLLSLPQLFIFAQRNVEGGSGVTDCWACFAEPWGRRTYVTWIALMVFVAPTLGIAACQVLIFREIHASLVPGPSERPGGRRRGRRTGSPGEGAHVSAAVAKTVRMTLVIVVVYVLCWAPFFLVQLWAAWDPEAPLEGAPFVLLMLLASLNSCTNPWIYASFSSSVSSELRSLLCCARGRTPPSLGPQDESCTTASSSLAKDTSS
Also: assay procedure not described here.

Structure (SMILES) | AC50 [1] | AC50 [2] | AC50 [3] | AC50 [4] | AC50 [5] | AC50 (Adenosine receptor A3) | AC50 (Adenosine receptor A1) | AC50 (Vasopressin V2 receptor)
C#Cc1cccc(Nc2ncnc3cc(OCCOC)c(OCCOC)cc23)c1 [ERLOTINIB] | > 30 µM | > 30 µM | > 30 µM | > 30 µM | > 30 µM | 3.01 µM | > 30 µM | 
Cc1cc2c(OCC(O)CNC(C)C)cccc2[nH]1 (stereo not drawn) [MEPINDOLOL] |  |  | > 30 µM |  |  | > 30 µM |  | 
CC(=O)/N=c1/sc(S(N)(=O)=O)nn1C [METHAZOLAMIDE] | > 10 µM | > 30 µM | > 30 µM | > 10 µM | > 10 µM | > 30 µM | > 10 µM | > 10 µM
CCOc1cc(N)c(Cl)cc1C(=O)NCC1CN(Cc2ccc(F)cc2)CCO1 (stereo not drawn) [MOSAPRIDE] |  |  | > 30 µM |  |  | 14.5 µM |  | 
CCOc1ccc2ccccc2c1C(=O)N[C@@H]1C(=O)N2[C@@H]1SC(C)(C)[C@@H]2C(=O)O [NAFCILLIN] |  |  | > 30 µM |  |  | > 30 µM |  | 
CN1CCC[C@H]1c1cccnc1 [NICOTINE] |  |  | > 30 µM |  |  | > 30 µM |  | 
CC(=O)Oc1ccccc1C(=O)Nc1ncc([N+](=O)[O-])s1 [NITAZOXANIDE] | 1.4 µM | 0.45 µM | > 30 µM | 7.5 µM |  | 9.88 µM | 7.1 µM | 14 µM
CCCCCCCCCCC[C@@H](C[C@@H]1OC(=O)[C@H]1CCCCCC)OC(=O)[C@H](CC(C)C)NC=O [ORLISTAT] |  |  | > 30 µM |  |  | > 30 µM |  | 
O=C1[C@H]2CCCC[C@H]2C(=O)N1CCCCN1CCN(c2nsc3ccccc23)CC1 [PEROSPIRONE] |  |  | > 30 µM |  |  | > 30 µM |  | 
CN(C)CCC(c1ccccc1)c1ccccn1 (stereo not drawn) [PHENIRAMINE] |  |  | > 30 µM |  |  | > 30 µM |  | 
CC(C)(C)C(=O)NCCCC(=O)O [PIVAGABINE] |  |  | > 30 µM |  |  | > 30 µM |  | 
CC(C)[N+](C)(CCOC(=O)C1c2ccccc2Oc2ccccc21)C(C)C [PROPANTHELINE] |  |  | > 30 µM |  |  | > 30 µM |  | 
CN(C)C(=O)c1nc(CNC(=O)CN)n(-c2ccc(Cl)cc2C(=O)c2ccccc2Cl)n1 [RILMAZAFONE] |  |  | > 30 µM |  |  | > 30 µM |  | 
NC(=O)NS(=O)(=O)c1ccc(N)cc1 [SULFACARBAMIDE] |  |  | > 30 µM |  |  | > 30 µM |  | 
CCCCCCCCNC(C)C(O)c1ccc(SC(C)C)cc1 (stereo not drawn) [SULOCTIDIL] |  |  | > 10 µM |  |  | 9.82 µM |  | 
CCCCCCCCCCCCCCCC(=O)OC/C=C(C)/C=C/C=C(C)/C=C/C1=C(C)CCCC1(C)C [VITAMIN A PALMITATE] |  |  | > 30 µM |  |  | 11.6 µM |  | 
